Test results: PubChem BioAssay (NCI)
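Interpolation was linear, between the two tested concentrations surrounding the appropriate level; five concentrations were tested over 48 hours in 96-well plates. At the GI50, growth is halved. TGI marks complete inhibition of growth.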

What was measured:
Experiment in all cases: DTP human tumour cell line panel, 48 h
[1] = test system: SF-268 CNS
[2] = test system: SK-OV-3 ovarian
[3] = test system: CAKI-1 renal
[4] = test system: OVCAR-8 ovarian
[5] = test system: BT-549 breast
[6] = test system: ACHN renal
[7] = test system: HCT-15 colon
[8] = test system: HOP-92 NSCLC
[9] = test system: MCF7 breast
[10] = test system: UO-31 renal
[11] = test system: SF-539 CNS
[12] = test system: LOX IMVI melanoma
[13] = test system: DU-145 prostate
[14] = test system: MDA-MB-231 breast
[15] = test system: MOLT-4 leukemia
[16] = test system: SW-620 colon
[17] = test system: NCI/ADR-RES ovarian
[18] = test system: HL-60(TB) leukemia
[19] = test system: MALME-3M melanoma
[20] = test system: UACC-257 melanoma
[21] = test system: SF-295 CNS
[22] = test system: SNB-75 CNS
[23] = test system: TK-10 renal
[24] = test system: A498 renal
[25] = test system: HCT-116 colon
[26] = test system: RPMI-8226 leukemia
[27] = test system: A549 NSCLC
[28] = test system: T-47D breast
[29] = test system: SK-MEL-2 melanoma
[30] = test system: SR leukemia
[31] = test system: SNB-19 CNS
[32] = test system: NCI-H522 lung
[33] = test system: SK-MEL-5 melanoma
[34] = test system: NCI-H226 lung
[35] = test system: MDA-MB-468 breast
[36] = test system: HT29 colon
[37] = test system: NCI-H460 lung
[38] = test system: PC-3 prostate
[39] = test system: KM12 colon
[40] = test system: COLO 205 colon
[41] = test system: SN12C renal
[42] = test system: EKVX NSCLC
[43] = test system: OVCAR-4 ovarian
[44] = test system: CCRF-CEM leukemia
[45] = test system: OVCAR-3 ovarian
[46] = test system: 786-0 renal
[47] = test system: OVCAR-5 ovarian
[48] = test system: HOP-62 NSCLC
[49] = test system: UACC-62 melanoma
[50] = test system: HCC-2998 colon
[51] = test system: NCI-H23 lung
[52] = test system: K-562 leukemia
[53] = test system: RXF 393 renal
[54] = test system: SK-MEL-28 melanoma
[55] = test system: HS 578T breast
[56] = test system: U251 CNS
[57] = test system: M14 melanoma
[58] = test system: MDA-MB-435
[59] = test system: IGROV1 ovarian

For `O=C(CSc1nnc(-c2ccc(-c3nc4ccc(Cl)cc4[nH]3)cc2)o1)Nc1ccc(Br)cc1`, the GI50 [1] was 3.45 µM, the TGI [1] was 16.8 µM and the GI50 [2] was 8.75 µM. For the same molecule, the TGI [2] was 27.5 µM, the GI50 [3] was 2.34 µM and the TGI [3] was 7.01 µM. The GI50 [4] was 2.17 µM, the TGI [4] was 5.63 µM and the GI50 [5] was 2.95 µM. The TGI [5] was 8.55 µM, the GI50 [6] was 2.4 µM and the TGI [6] was 6.78 µM. It also gave a GI50 [7] of 2.94 µM, a TGI [7] of 13.6 µM and a GI50 [8] of 2.43 µM. The TGI [8] was 9.03 µM, the GI50 [9] was 3.02 µM and the TGI [9] was 12.9 µM. The GI50 [10] was 4.03 µM, the TGI [10] was 16.5 µM and the GI50 [11] was 1.65 µM. The TGI [11] was 3.08 µM, the GI50 [12] was 1.42 µM and the TGI [12] was 2.8 µM. For the same molecule, the GI50 [13] was 4.56 µM, the TGI [13] was 19.3 µM and the GI50 [14] was 1.76 µM. It also gave a TGI [14] of 3.59 µM, a GI50 [15] of 2.99 µM and a TGI [15] of 14.2 µM. The GI50 [16] was 4.3 µM, the TGI [16] was 28.5 µM and the GI50 [17] was 4.93 µM. For the same molecule, the TGI [17] was 30.3 µM, the GI50 [18] was 2.87 µM and the TGI [18] was 11.5 µM. It also gave a GI50 [19] of 1.94 µM, a TGI [19] of 4.84 µM and a GI50 [20] of 2.97 µM. The TGI [20] was 12.8 µM, the GI50 [21] was 1.93 µM and the TGI [21] was 4.99 µM. It also gave a GI50 [22] of 2.39 µM, a TGI [22] of 8.71 µM and a GI50 [23] of 16.5 µM. For the same molecule, the TGI [23] was 33.4 µM, the GI50 [24] was 17.3 µM and the TGI [24] was 34.3 µM. For the same molecule, the GI50 [25] was 3.22 µM, the TGI [25] was 14.4 µM and the GI50 [26] was 5.05 µM. For the same molecule, the TGI [26] was 26.3 µM, the GI50 [27] was 1.79 µM and the TGI [27] was 3.95 µM. The GI50 [28] was 3.78 µM, the TGI [28] was 20.2 µM and the GI50 [29] was 2.98 µM. The TGI [29] was 11.1 µM, the GI50 [30] was 1.67 µM and the TGI [30] was > 100 µM. It also gave a GI50 [31] of 3.76 µM, a TGI [31] of 14.3 µM and a GI50 [32] of 1.84 µM. For the same molecule, the TGI [32] was 5.01 µM, the GI50 [33] was 2.98 µM and the TGI [33] was 11.1 µM. The GI50 [34] was 1.62 µM, the TGI [34] was 4.58 µM and the GI50 [35] was 2.66 µM. It also gave a TGI [35] of 9.97 µM, a GI50 [36] of 3.42 µM and a TGI [36] of 13.3 µM. The GI50 [37] was 2.34 µM, the TGI [37] was 6.32 µM and the GI50 [38] was 2.1 µM. It also gave a TGI [38] of 5.78 µM, a GI50 [39] of 6 µM and a TGI [39] of 31.8 µM. For the same molecule, the GI50 [40] was 24.5 µM, the TGI [40] was > 100 µM and the GI50 [41] was 1.74 µM. It also gave a TGI [41] of 4.09 µM, a GI50 [42] of 3.33 µM and a TGI [42] of 14.6 µM. For the same molecule, the GI50 [43] was 4.81 µM, the TGI [43] was 19.3 µM and the GI50 [44] was 2.31 µM. The TGI [44] was 10.4 µM, the GI50 [45] was 3.72 µM and the TGI [45] was 11.7 µM. The GI50 [46] was 2.23 µM, the TGI [46] was 5.5 µM and the GI50 [47] was 3.71 µM. The TGI [47] was 17.5 µM, the GI50 [48] was 1.81 µM and the TGI [48] was 3.96 µM. The GI50 [49] was 1.84 µM, the TGI [49] was 4.61 µM and the GI50 [50] was 15.3 µM. The TGI [50] was 46.5 µM, the GI50 [51] was 2 µM and the TGI [51] was 4.49 µM. It also gave a GI50 [52] of 2.49 µM, a TGI [52] of 11.8 µM and a GI50 [53] of 1.98 µM. The TGI [53] was 5.15 µM, the GI50 [54] was 1.77 µM and the TGI [54] was 3.81 µM. The GI50 [55] was 2.62 µM, the TGI [55] was 9.96 µM and the GI50 [56] was 1.88 µM. For the same molecule, the TGI [56] was 3.82 µM, the GI50 [57] was 3.06 µM and the TGI [57] was 11.1 µM. It also gave a GI50 [58] of 3.84 µM, a TGI [58] of 14.3 µM and a GI50 [59] of 8.27 µM. The TGI [59] was 21.5 µM.
Molecule `O=C(N=Nc1c(O)[nH]c2ccc(Br)cc12)c1ccc2nc(-c3ccccc3)[nH]c2c1` has a GI50 [1] of 2 µM, a TGI [1] of 4.6 µM and a GI50 [2] of 1.97 µM. The TGI [2] was 4.29 µM, the GI50 [3] was > 100 µM and the TGI [3] was > 100 µM. It also gave a GI50 [4] of 1.53 µM, a TGI [4] of 3.76 µM and a GI50 [5] of 3.55 µM. The TGI [5] was 26.5 µM, the GI50 [6] was 8.96 µM and the TGI [6] was > 100 µM. The GI50 [7] was 18.6 µM, the TGI [7] was > 100 µM and the GI50 [8] was 2.17 µM. For the same molecule, the TGI [8] was 6.63 µM, the GI50 [9] was 1.7 µM and the TGI [9] was 5.09 µM. For the same molecule, the GI50 [10] was > 100 µM, the TGI [10] was > 100 µM and the GI50 [11] was 1.77 µM. It also gave a TGI [11] of 3.43 µM, a GI50 [12] of 1.23 µM and a TGI [12] of 2.51 µM. The GI50 [13] was 1.95 µM, the TGI [13] was 4.06 µM and the GI50 [14] was 1.69 µM. It also gave a TGI [14] of 3.18 µM, a GI50 [15] of 1.34 µM and a TGI [15] of 4.01 µM. For the same molecule, the GI50 [16] was 1.82 µM, the TGI [16] was 3.61 µM and the GI50 [17] was > 100 µM. The TGI [17] was > 100 µM, the GI50 [18] was 2.54 µM and the TGI [18] was 6.73 µM. It also gave a GI50 [19] of 1.62 µM, a TGI [19] of 3.35 µM and a GI50 [20] of 3.27 µM. For the same molecule, the TGI [20] was 21.7 µM, the GI50 [21] was 1.86 µM and the TGI [21] was 3.78 µM. For the same molecule, the GI50 [22] was 2.11 µM, the TGI [22] was 5.62 µM and the GI50 [23] was 3.61 µM. The TGI [23] was 70.1 µM, the GI50 [24] was 3.55 µM and the TGI [24] was 17.9 µM. The GI50 [25] was 3.24 µM, the TGI [25] was 12.8 µM and the GI50 [26] was 17.2 µM. For the same molecule, the TGI [26] was > 100 µM, the GI50 [27] was 2.22 µM and the TGI [27] was 7.41 µM. The GI50 [28] was 1.07 µM, the TGI [28] was 2.52 µM and the GI50 [29] was 2.17 µM. For the same molecule, the TGI [29] was 4.78 µM, the GI50 [31] was 1.79 µM and the TGI [31] was 4.35 µM. It also gave a GI50 [32] of 1.38 µM, a TGI [32] of 3.1 µM and a GI50 [33] of 3.38 µM. The TGI [33] was 12.1 µM, the GI50 [34] was 2.03 µM and the TGI [34] was 5.43 µM. The GI50 [35] was 1.61 µM, the TGI [35] was 3.06 µM and the GI50 [36] was 2.66 µM. It also gave a TGI [36] of 8.75 µM, a GI50 [37] of 1.79 µM and a TGI [37] of 3.53 µM. The GI50 [38] was 2.92 µM, the TGI [38] was > 100 µM and the GI50 [39] was 22 µM. For the same molecule, the TGI [39] was > 100 µM, the GI50 [40] was 2.53 µM and the TGI [40] was 6.95 µM. It also gave a GI50 [41] of 1.86 µM, a TGI [41] of 4.11 µM and a GI50 [42] of 3 µM. It also gave a TGI [42] of 11.2 µM, a GI50 [43] of 1.99 µM and a TGI [43] of 4.26 µM. The GI50 [44] was 3.18 µM, the TGI [44] was > 100 µM and the GI50 [45] was 2.14 µM. For the same molecule, the TGI [45] was 4.26 µM, the GI50 [46] was 2.01 µM and the TGI [46] was 3.91 µM. It also gave a GI50 [47] of 3.72 µM, a TGI [47] of 27.1 µM and a GI50 [48] of 1.69 µM. The TGI [48] was 3.36 µM, the GI50 [49] was 1.75 µM and the TGI [49] was 3.37 µM. For the same molecule, the GI50 [50] was 1.48 µM, the TGI [50] was 3.11 µM and the GI50 [51] was 1.53 µM. It also gave a TGI [51] of 3.65 µM, a GI50 [52] of 1.29 µM and a TGI [52] of 6.99 µM. For the same molecule, the GI50 [53] was 2.57 µM, the TGI [53] was 6.6 µM and the GI50 [54] was 1.79 µM. The TGI [54] was 3.42 µM, the GI50 [55] was 1.86 µM and the TGI [55] was 4.83 µM. For the same molecule, the GI50 [56] was 0.418 µM, the TGI [56] was 1.59 µM and the GI50 [57] was 1.95 µM. The TGI [57] was 4.14 µM, the GI50 [58] was 2.32 µM and the TGI [58] was 4.93 µM. It also gave a GI50 [59] of 3.03 µM and a TGI [59] of 13.2 µM.
